“And” between values parts separate entries of the source, which are not always exact repeats. Equal entries are not always repeated. Where two headings read alike, the source gives them in different places.
Columns and labels:
[1] = mouse, in vivo; cited from earlier work
[2] = system: subcutaneous SW1222 xenografts (A33 antigen-expressing human colorectal carcinoma); details: 24 h accumulation interval, Zeglis 2013, cited from earlier work
[3] = Dosimetry calculations (OLINDA) for huA33-based PET imaging strategies; parameters: species or system human (70-kg Standard Man model, from mouse biodistribution); details: pretargeting
Description: The radiation dosimetry of ^64Cu-Tz-SarAr was performed to ensure the selective delivery of radioisotopes to malignant tissues at radiation doses below the doses of traditional radioimmunoconjugates. To this end, dosimetry calculations were performed using the biodistribution data collected and the OLINDA computer program to determine the mean organ absorbed doses (rad/mCi) and effective dose (rem/mCi) for each strategy (Table 23). The total effective dose of the ^64Cu-Tz-SarAr pretargeting strategy with a 24 h interval period was 0.041 rem/mCi, a slight reduction compared to the 0.046 rem/mCi effective dose created by ^64Cu-Tz-NOTA. This difference was due to the significant reduction in the mean organ absorbed dose to the large intestine. Moreover, the total effective dose of the ^64Cu-Tz-SarAr pretargeting strategy was inversely proportional to the duration of the accumulation interval. For example, the effective dose decreased from 0.041 rem/mCi with a 24 h interval to 0.038 rem/mCi with a 48 h interval to 0.034 with a 120 h interval.
Mouse biodistribution data were expressed as normal-organ mean standard uptake values (SUVs) versus time post-administration. In first order, that SUVs were independent of body mass and thus the same among species, the mean SUV in mouse organ i, SUVOrgan i|Mouse, was converted to the fraction of the injected dose in each human organ I, FIDOrgan I|Human, using the following formula:
[formula] and the organ and total-body masses of the 70-kg Standard Man anatomic model. […] The cumulated activity, or residence time, in human organ i, μCi, in μCi h/μCi, was then calculated by analytically integrating the time-activity function in organ i, replacing the biological clearance constant, (λbλj, for each component j of the fitted exponential function with the corresponding effective clearance constant, (λeλj=(λbλj+λp, where λp is the physical decay constant of the radionuclide. The resulting organ residence times were entered into the OLINDA computer program to yield the mean organ absorbed doses and effective dose in rad/mCi and rem/mCi, respectively. Statistical Analysis

Compound: O=C([O-])CN1CCN(CC(=O)[O-])CC(Cc2ccc(NC(=O)CCCC(=O)NCc3ccc(-c4nncnn4)cc3)cc2)N(CC(=O)[O-])CC1.[64Cu+2] (stereo not drawn) [^64Cu-Tz-NOTA]
- t1/2 of clearance through the intestinal tract [1]: ~4 h
- Blood activity concentration ([2]; 1 h p.i.): 3.47 ± 0.63 % ID/g
- Bone activity concentration ([2]; 1 h p.i.): 0.3 ± 0.16 % ID/g
- Heart activity concentration ([2]; 1 h p.i.): 1.09 ± 0.18 % ID/g
- Kidney activity concentration ([2]; 1 h p.i.): 1.3 ± 0.15 % ID/g
- Large Intestine activity concentration ([2]; 1 h p.i.): 13.29±3.15 % ID/g
- Liver activity concentration ([2]; 1 h p.i.): 2.19 ± 0.25 % ID/g
- Lung activity concentration ([2]; 1 h p.i.): 1.58 ± 0.46 % ID/g
- Muscle activity concentration ([2]; 1 h p.i.): 0.22 ± 0.04 % ID/g
- Small Intestine activity concentration ([2]; 1 h p.i.): 0.03 ± 0.04 % ID/g
- Spleen activity concentration ([2]; 1 h p.i.): 0.63 ± 0.07 % ID/g
- Stomach activity concentration ([2]; 1 h p.i.): 0.45 ± 0.08 % ID/g
- Tumor activity concentration ([2]; 1 h p.i.): 4.07 ± 0.25 % ID/g
- Tumor/Blood activity concentration ratio ([2]; 1 h p.i.): 1.17 ± 0.22
- Tumor/Bone activity concentration ratio ([2]; 1 h p.i.): 13.72 ± 7.63
- Tumor/Heart activity concentration ratio ([2]; 1 h p.i.): 3.75 ± 0.65
- Tumor/Kidney activity concentration ratio ([2]; 1 h p.i.): 3.14 ± 0.41
- Tumor/Large Intestine activity concentration ratio ([2]; 1 h p.i.): 0.31 ± 0.08
- Tumor/Liver activity concentration ratio ([2]; 1 h p.i.): 1.86 ± 0.24
- Tumor/Lung activity concentration ratio ([2]; 1 h p.i.): 2.57 ± 0.76
- Tumor/Muscle activity concentration ratio ([2]; 1 h p.i.): 18.42 ± 3.71
- Tumor/Small Intestine activity concentration ratio ([2]; 1 h p.i.): 119.52 ± 148.82
- Tumor/Spleen activity concentration ratio ([2]; 1 h p.i.): 6.46 ± 0.81
- Tumor/Stomach activity concentration ratio ([2]; 1 h p.i.): 8.96 ± 1.7
- Blood activity concentration ([2]; 4 h p.i.): 2.61 ± 0.83 % ID/g
- Bone activity concentration ([2]; 4 h p.i.): 0.27 ± 0.24 % ID/g
- Heart activity concentration ([2]; 4 h p.i.): 0.91 ± 0.27 % ID/g
- Kidney activity concentration ([2]; 4 h p.i.): 0.95 ± 0.31 % ID/g
- Large Intestine activity concentration ([2]; 4 h p.i.): 9.43 ± 4.22 % ID/g
- Liver activity concentration ([2]; 4 h p.i.): 1.26 ± 0.3 % ID/g
- Lung activity concentration ([2]; 4 h p.i.): 1.6 ± 0.39 % ID/g
- Muscle activity concentration ([2]; 4 h p.i.): 0.14 ± 0.03 % ID/g
- Small Intestine activity concentration ([2]; 4 h p.i.): 0.38 ± 0.08 % ID/g
- Spleen activity concentration ([2]; 4 h p.i.): 0.51 ± 0.22 % ID/g
- Stomach activity concentration ([2]; 4 h p.i.): 0.25 ± 0.12 % ID/g
- Tumor activity concentration ([2]; 4 h p.i.): 4.09±0.61 % ID/g
- Tumor/Blood activity concentration ratio ([2]; 4 h p.i.): 1.57 ± 0.55
- Tumor/Bone activity concentration ratio ([2]; 4 h p.i.): 14.95 ± 13.2
- Tumor/Heart activity concentration ratio ([2]; 4 h p.i.): 4.51 ± 1.49
- Tumor/Kidney activity concentration ratio ([2]; 4 h p.i.): 4.32 ± 1.56
- Tumor/Large Intestine activity concentration ratio ([2]; 4 h p.i.): 0.43 ± 0.2
- Tumor/Liver activity concentration ratio ([2]; 4 h p.i.): 3.23 ± 0.9
- Tumor/Lung activity concentration ratio ([2]; 4 h p.i.): 2.55 ± 0.73
- Tumor/Muscle activity concentration ratio ([2]; 4 h p.i.): 29.38 ± 8.5
- Tumor/Small Intestine activity concentration ratio ([2]; 4 h p.i.): 10.83 ± 2.8
- Tumor/Spleen activity concentration ratio ([2]; 4 h p.i.): 7.97 ± 3.57
- Tumor/Stomach activity concentration ratio ([2]; 4 h p.i.): 16.17 ± 8.21
- Blood activity concentration ([2]; 12 h p.i.): 2.31 ± 0.4 % ID/g
- Bone activity concentration ([2]; 12 h p.i.): 0.35 ± 0.11 % ID/g
- Heart activity concentration ([2]; 12 h p.i.): 0.92 ± 0.14 % ID/g
- Kidney activity concentration ([2]; 12 h p.i.): 0.91 ± 0.29 % ID/g
- Large Intestine activity concentration ([2]; 12 h p.i.): 2.92 ± 1.34 % ID/g
- Liver activity concentration ([2]; 12 h p.i.): 0.93 ± 0.23 % ID/g
- Lung activity concentration ([2]; 12 h p.i.): 1.09 ± 0.38 % ID/g
- Muscle activity concentration ([2]; 12 h p.i.): 0.16 ± 0.02 % ID/g
- Small Intestine activity concentration ([2]; 12 h p.i.): 0.77 ± 0.51 % ID/g
- Spleen activity concentration ([2]; 12 h p.i.): 0.59 ± 0.25 % ID/g
- Stomach activity concentration ([2]; 12 h p.i.): 0.52 ± 0.64 % ID/g
- Tumor activity concentration ([2]; 12 h p.i.): 4.20 ± 0.84 % ID/g
- Tumor/Bone activity concentration ratio ([2]; 12 h p.i.): 11.98 ± 4.51
- Tumor/Heart activity concentration ratio ([2]; 12 h p.i.): 4.58 ± 1.16
- Tumor/Kidney activity concentration ratio ([2]; 12 h p.i.): 4.6 ± 1.71
- Tumor/Large Intestine activity concentration ratio ([2]; 12 h p.i.): 1.44±0.72
- Tumor/Liver activity concentration ratio ([2]; 12 h p.i.): 4.53 ± 1.45
- Tumor/Lung activity concentration ratio ([2]; 12 h p.i.): 3.87 ± 1.55
- Tumor/Small Intestine activity concentration ratio ([2]; 12 h p.i.): 5.46 ± 3.81
- Tumor/Spleen activity concentration ratio ([2]; 12 h p.i.): 7.1 ± 3.34
- Tumor/Stomach activity concentration ratio ([2]; 12 h p.i.): 8.12 ± 10.12
- Blood activity concentration ([2]; 24 h p.i.): 2.07 ± 0.49 % ID/g
- Bone activity concentration ([2]; 24 h p.i.): 0.29 ± 0.07 % ID/g
- Heart activity concentration ([2]; 24 h p.i.): 0.82 ± 0.21 % ID/g
- Kidney activity concentration ([2]; 24 h p.i.): 0.7 ± 0.19 % ID/g
- Large Intestine activity concentration ([2]; 24 h p.i.): 1.67 ± 0.88 % ID/g
- Liver activity concentration ([2]; 24 h p.i.): 1.07 ± 0.15 % ID/g
- Lung activity concentration ([2]; 24 h p.i.): 1.03 ± 0.31 % ID/g
- Muscle activity concentration ([2]; 24 h p.i.): 0.15 ± 0.02 % ID/g
- Small Intestine activity concentration ([2]; 24 h p.i.): 0.35 ± 0.04 % ID/g
- Spleen activity concentration ([2]; 24 h p.i.): 0.45 ± 0.11 % ID/g
- Stomach activity concentration ([2]; 24 h p.i.): 0.16 ± 0.03 % ID/g
- Tumor activity concentration ([2]; 24 h p.i.): 3.94 ± 0.92 % ID/g
- Tumor/Blood activity concentration ratio ([2]; 24 h p.i.): 1.9 ± 0.63
- Tumor/Bone activity concentration ratio ([2]; 24 h p.i.): 13.43 ± 4.5
- Tumor/Heart activity concentration ratio ([2]; 24 h p.i.): 4.82 ± 1.69
- Tumor/Kidney activity concentration ratio ([2]; 24 h p.i.): 5.61 ± 1.98
- Tumor/Large Intestine activity concentration ratio ([2]; 24 h p.i.): 2.36 ± 1.37
- Tumor/Liver activity concentration ratio ([2]; 24 h p.i.): 3.69 ± 1.01
- Tumor/Lung activity concentration ratio ([2]; 24 h p.i.): 3.83 ± 1.45
- Tumor/Muscle activity concentration ratio ([2]; 24 h p.i.): 26.98 ± 7.41
- Tumor/Small Intestine activity concentration ratio ([2]; 24 h p.i.): 11.4 ± 2.91
- Tumor/Spleen activity concentration ratio ([2]; 24 h p.i.): 8.79 ± 2.98
- Tumor/Stomach activity concentration ratio ([2]; 24 h p.i.): 24.29 ± 6.89

Compound: NC12CNCCNCC(NCc3ccc(CNC(=O)CCCC(=O)NCc4ccc(-c5nncnn5)cc4)cc3)(CNCCNC1)CNCCNC2.[64Cu+2] [^64Cu-Tz-SarAr]
- Brain absorbed dose ([3]; 24 h interval): 0.0361 rad/mCi
- Breasts absorbed dose ([3]; 24 h interval): 0.0323 rad/mCi
- Effective Dose ([3]; 24 h interval): 0.041 rem/mCi and 0.0414 rem/mCi
- Heart Wall absorbed dose ([3]; 24 h interval): 0.0427 rad/mCi
- Kidneys absorbed dose ([3]; 24 h interval): 0.0661 rad/mCi
- Lower Lg. Int. Wall absorbed dose ([3]; 24 h interval): 0.0482 rad/mCi
- Osteogenic Cells absorbed dose ([3]; 24 h interval): 0.0893 rad/mCi
- Ovaries absorbed dose ([3]; 24 h interval): 0.0401 rad/mCi
- Pancreas absorbed dose ([3]; 24 h interval): 0.0395 rad/mCi
- Skin absorbed dose ([3]; 24 h interval): 0.0297 rad/mCi
- Small Intestine absorbed dose ([3]; 24 h interval): 0.0418 rad/mCi
- Spleen absorbed dose ([3]; 24 h interval): 0.0370 rad/mCi
- Stomach Wall absorbed dose ([3]; 24 h interval): 0.0552 rad/mCi
- Testes absorbed dose ([3]; 24 h interval): 0.0345 rad/mCi
- Thymus absorbed dose ([3]; 24 h interval): 0.0349 rad/mCi
- Upper Lg. Int. Wall absorbed dose ([3]; 24 h interval): 0.0409 rad/mCi
- Uterus absorbed dose ([3]; 24 h interval): 0.0410 rad/mCi
- Effective Dose ([3]; 48 h interval): 0.038 rem/mCi and 0.0377 rem/mCi
- Kidneys absorbed dose ([3]; 48 h interval): 0.0539 rad/mCi
- Pancreas absorbed dose ([3]; 48 h interval): 0.0364 rad/mCi
- Spleen absorbed dose ([3]; 48 h interval): 0.0205 rad/mCi
- Stomach Wall absorbed dose ([3]; 48 h interval): 0.0422 rad/mCi
- Uterus absorbed dose ([3]; 48 h interval): 0.0383 rad/mCi
- Effective Dose ([3]; 120 h interval): 0.034 rem/mCi and 0.0341 rem/mCi
- Heart Wall absorbed dose ([3]; 120 h interval): 0.0330 rad/mCi
- Kidneys absorbed dose ([3]; 120 h interval): 0.0566 rad/mCi
- Lungs absorbed dose ([3]; 120 h interval): 0.0216 rad/mCi
- Osteogenic Cells absorbed dose ([3]; 120 h interval): 0.0720 rad/mCi
- Spleen absorbed dose ([3]; 120 h interval): 0.0225 rad/mCi
